Measurements as given in ChEMBL document CHEMBL4418315, “Atg7 inhibitors and the uses thereof” (2018).

What follows are compounds tested against T1, Ubiquitin-like modifier-activating enzyme ATG7 (Homo sapiens) (UniProt O95352) (assay: Inhibition of recombinant His-tagged human ATG7 at 0.111 uM incubated for 105 mins in presence of GST-tagged ATG3 and Flag-tagged Gabarap and measured after 2 hrs by FRET assay relative to control).
T1 sequence (whole entry): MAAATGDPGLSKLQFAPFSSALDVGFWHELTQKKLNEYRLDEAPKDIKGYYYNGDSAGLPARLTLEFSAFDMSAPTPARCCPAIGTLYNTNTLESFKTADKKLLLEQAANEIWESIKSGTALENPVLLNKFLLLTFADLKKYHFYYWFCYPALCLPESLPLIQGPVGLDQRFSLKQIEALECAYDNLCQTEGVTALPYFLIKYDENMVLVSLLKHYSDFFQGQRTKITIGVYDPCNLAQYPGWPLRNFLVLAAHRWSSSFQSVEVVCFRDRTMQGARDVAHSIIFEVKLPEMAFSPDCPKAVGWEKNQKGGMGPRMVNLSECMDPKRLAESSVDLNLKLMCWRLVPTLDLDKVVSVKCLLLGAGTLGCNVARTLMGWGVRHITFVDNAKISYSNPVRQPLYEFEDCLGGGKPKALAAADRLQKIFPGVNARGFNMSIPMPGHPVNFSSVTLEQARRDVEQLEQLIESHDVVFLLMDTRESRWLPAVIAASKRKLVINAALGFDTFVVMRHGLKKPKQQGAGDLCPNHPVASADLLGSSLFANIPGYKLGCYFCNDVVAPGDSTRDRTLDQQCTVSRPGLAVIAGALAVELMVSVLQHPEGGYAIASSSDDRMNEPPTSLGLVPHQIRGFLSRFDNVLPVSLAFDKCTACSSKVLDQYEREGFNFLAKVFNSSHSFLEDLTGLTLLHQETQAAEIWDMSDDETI

Row | inhibition [%] | Compound
1 | 61 | CC[C@H](C)Sc1nn([C@@H]2O[C@H](COS(N)(=O)=O)[C@@H](O)[C@@H]2F)c2ncnc(N)c12
2 | 5 | Nc1ncnc2c1cnn2[C@H]1C[C@H](O)[C@H](COS(N)(=O)=O)O1
3 | 59 to 64 | Cc1ccc(Sc2nn([C@H]3C[C@H](O)[C@@H](COS(N)(=O)=O)O3)c3ncnc(N)c23)c(F)c1
4 | 63 | CC[C@@H](C)Sc1nn([C@@H]2O[C@H](COS(N)(=O)=O)[C@@H](O)[C@@H]2F)c2ncnc(N)c12

The compounds below were run against T2, Ubiquitin-like modifier-activating enzyme ATG7 (Homo sapiens, UniProt O95352) (assay: Inhibition of recombinant His-tagged human ATG7 incubated for 105 mins in presence of GST-tagged ATG3 and Flag-tagged Gabarap and measured after 2 hrs by FRET assay).
T2 sequence (O95352 whole entry): T1 sequence (whole entry)

Row | IC50 [nM] | Compound
5 | > 500 | CCc1nn([C@H]2C[C@H](O)[C@H](COS(N)(=O)=O)O2)c2ncnc(N)c12
6 | 20 to 50 | Nc1ncnc2c1c(SCCO)nn2[C@@H]1O[C@H](COS(N)(=O)=O)[C@@H](O)[C@@H]1F
